Columns and labels:
caspase-3 [1] = assay: Caspase-3 activity in treated VSMC-E1A; type: cell-based, rat
Description: (§1) FIG. 5. Effect of ouabain on caspase-3 activity in VSMC-E1A (A) and Jurkat cells (B). VSMC-E1A and Jurkat cells were pretreated with 1 mM ouabain for 1 and 2 hours, respectively, and the additions indicated below the bars were delivered in media with 10% calf serum and with the baseline (137/5) or inverse (14/128) [Na^+]o/[K^+]o ratio for 6 (VSMC-E1A) or 3 hours (Jurkat cells). In experiments with VSMC-E1A, calf serum (CS) was omitted where indicated (−). Abbreviations: staur.—staurosporine (0.25 μM), ok.ac.—okadaic acid (1 μM), mann.—mannitol (350 mM); Fas-L—Fas ligand (100 ng/ml). Mean values±S.E. obtained in experiments performed in quadruplicate (A) or triplicate (B) are given. ★p<0.001 compared to ouabain-untreated cells.
(§2) Caspase activity. VSMC-E1A seeded in 20 cm^2 flasks and treated as indicated in FIG. 5 were scratched, transferred to centrifuge tubes, washed twice with PBS and lysed in 0.5 ml of buffer A contaming 50 mM tris-HCl (pH 7.4), 5 mM MgCl2, 1 mM EGTA and 0.1% CHAPS. Then, 50-100 μl of cell lysate was mixed with 600 μl of buffer A containing 1 mM dithiothreitol, 40 μM YVAD-AMC or DEVD-AMC with or without 1 μM of caspase-1 and capspase-3 inhibitors (Ac-YVAD-CHO and Ac-DEVD-CHO, respectively), incubated for 2 hours at 37° C. and diluted 15-fold with 80 mM glycine-NaOH buffer (pH 10). Fluorescence of the samples was measured at ex=365 run and em=465 run and calibrated with AMC in the range of 10 to 100 nM. To measure caspase activity in control and ouabain-treated Jurkat cells, 5 ml of suspension containing ˜2×10^7 cells was transferred onto ice and sedimented. The pellet of cells was washed and treated with 0.3 ml of medium A in the same way as VSMC. Protein content was estimated by Bradford methods.

VSMC-E1A = assay: Chromatin cleavage assay in VSMC-E1A; type: cell-based, rat
Description: FIG. 2. Effect of ouabain on chromatin cleavage in VSMC-E1A. (A) Kinetics of the accumulation of chromatin fragments in control (curves 1, 3) and ouabain-treated (curves 2, 4) VSMC-E1A in the presence of 10% calf serum (CS, curves 1, 2) or in CS-free medium (curves 3, 4). Mean values ±S.E. obtained in experiments performed in quadruplicate are given. (B) Content of chromatin fragments in VSMC-E1A subjected to 6 hr of incubation in serum-supplied medium with or without 1 mM ouabain, 0.25 μM staurosporine, 1 μM okadaic acid and 350 mM mannitol. Mean values±S.E. obtained in 3 experiments performed in quadruplicate are given. ★, ★★ p<0.05 and 0.001 compared to ouabain-untreated cells. In both experiments, ouabain was added 1 hour before triggering of apoptosis.
Cells were incubated in K^+-containing medium consisting of 91 mM NaCl, 5 mM KCl, 0.9 mM NaH2PO4, 44 mM NaHCO3, 1.8 mM CaCl2, 0.8 mM MgCl2, 33 mM HEPES and 5 mM D-glucose (pH 7.4) (lines 1 and 2) or in K^+-depleted medium (equimolar substitution of KCl by NaCl, line 3) with or without 10% calf serum (CS) and 1 mM ouabain as indicated. In experiments with VSMC-MYC and VSMC-E1A, cells were preincubated for 1 hr with ouabain or with K^+-depleted medium in the presence of CS and then subjected to treatment with serum-free media. After 24 hours (VSMC) or 6 hours (VSMC-MYC and VSMC-E1A), the content of chromatin fragments was measured as described in Experimental Procedures. Mean values±S.E. obtained in 3 experiments performed in quadruplicate (VSMC) or triplicate (VSMC-MYC, VSMC-E1A) are given. ★, ★★ p<0.05 and 0.001 compared to the controls.
To estimate chromatin cleavage, cells were incubated for 1 hr in the presence of 10% calf serum (CS) in the control solution (DMEM, [Na^+]=137 mM; [K^+]=5 mM—line 1) or under equimolar substitution of NaCl by KCl ([Na^+]=14 mM; [K^+]=128 mM—line 2) with or without 1 mM ouabain and then for an additional 6 hours in the same media with or without CS. Intracellular Na^+ and K^+ content was measured as steady-state distribution of isotopes after 24 hours preincubation of cells in control Na^+-enriched solution containing 0.5 μCi/ml ^86Rb or 2 μCilml ^22Na, and additional 6 hours incubation in Na^+—(line 1) or K^+—(line 2) enriched medium, containing 10% CS and isotopes with the same specific activity with or without 1 mM ouabain. For more details see Experimental Procedures. Mean values±S.E. obtained in 3 experiments performed in triplicate (ion content) or quadruplicate (chromatin cleavage) are given. ★p<0.001 compared to ouabain-untreated cells.
VSMC-E1A cells were pretreated with compounds indicated in the left column during 2 hours in DMEM containing 10% calf serum and then additional 3 hours in the absence or presence of calf serum. The increment of the content of chromatin fragments triggered by serum withdrawal in control cells was taken as 100%. Means+S.E. from experiments performed with quadruplicate are given. ★p<0.001 as compared to control.
Cells. VSMC were obtained by explant methods from aortas of 10- to 13-week-old male rats as described previously (17), cultured in DMEM with 10% calf serum, 100 U/ml penicillin, 100 µg/ml streptomycin and used between 10 to 16 passages. Cells transfected with c-myc (VSMC-MYC) and E1A-adenovirus (VSMC-E1A) were obtained in accordance with a previously-described protocol (18,19) and were cultured in the same medium with the addition of 500 µg/ml genticin. Jurkat cells were obtained from the American Type Culture Collection and cultured in RPMI 1640 medium supplied with 10% calf serum, antibiotics, sodium pyruvate, glutamate and β-mercaptoethanol.
Chromatin cleavage assay. Chromatin cleavage in VSMC was estimated by a technique described previously in detail (10). Briefly, VSMC grown in 24-well dishes were labeled for 24 hours in serum-supplied DMEM with [^3H]-thymidine (1 μCi/ml), washed with 2×2 ml of DMEM and incubated in serum-supplied DMEM. […]

caspase-3 [2] = assay: Caspase-3 activity in treated Jurkat cells; type: cell-based, human; details: for increase of caspase-3 activity: 3 hours, Fas ligand 100 ng/ml, staurosporine 0.25 μM, mannitol 350 mM
Description: as §1, §2

Row | Structure (SMILES) | increment of caspase-3 activity under induction of apoptosis (caspase-3 [1]; 1 mM ouabain, control medium) | caspase-3 activity in apoptosis triggered by okadaic acid (caspase-3 [1]; ouabain, K+-enriched, Na+-depleted medium ([Na+]o/[K+]o=14/128)) | baseline activity of caspase-3 (caspase-3 [1]; pretreatment 1 hour with 1 mM ouabain (from 560±41)) | apoptosis triggered by staurosporine and okadaic acid (VSMC-E1A; VSMC-E1A, 1 mM ouabain, FIG. 2b) | Increment of chromatin fragments triggered by serum withdrawal(%) (VSMC-E1A; VSMC-E1A, 1 mM, pretreated 2 hours then 3 hours with or without calf serum, control increment taken as 100%) | Chromatin fragments (%) (VSMC-E1A; VSMC-E1A, 10% CS, 1 mM ouabain, 1 hr preincubation, 6 hours) | Chromatin fragments (%) (VSMC-E1A; VSMC-E1A, CS-free, 1 mM ouabain, 1 hr preincubation, 6 hours) | baseline and serum withdrawal-induced chromatin cleavage (VSMC-E1A; VSMC-E1A, ouabain added 1 hour before, FIG. 2a) | Chromatin fragments (%) (VSMC-E1A; ouabain-treated VSMC-E1A, 1 mM, 10% CS, medium [Na+]o=14, [K+]o=128 mM, 1 hr + 6 hours) | Chromatin fragments (%) (VSMC-E1A; ouabain-treated VSMC-E1A, 1 mM, 10% CS, medium [Na+]o=137, [K+]o=5 mM, 1 hr + 6 hours) | Chromatin fragments (%) (VSMC-E1A; ouabain-treated VSMC-E1A, 1 mM, CS-free, medium [Na+]o=14, [K+]o=128 mM, 1 hr + 6 hours) | Chromatin fragments (%) (VSMC-E1A; ouabain-treated VSMC-E1A, 1 mM, CS-free, medium [Na+]o=137, [K+]o=5 mM, 1 hr + 6 hours) | increment of caspase-3 activity triggered by Fas ligand, staurosporine and hyperosmotic shrinkage (caspase-3 [2]; ouabain) | baseline caspase-3 activity (caspase-3 [2]; pretreatment 2 hours with 1 mM ouabain (from 296±38)) | caspase-3 activity under mannitol-induced cell shrinkage (caspase-3 [1]; 350 mM mannitol, 6 hours) | chromatin cleavage under hyperosmotic shrinkage (VSMC-E1A; control and ouabain-treated VSMC-E1A, 350 mM mannitol, 6 hr) | increase of caspase-3 activity (caspase-3 [2]) [fold] | increase of caspase-3 activity (caspase-3 [1]; 6 hours, staurosporine 0.25 μM, okadaic acid 1 μM) [fold] | content of chromatin fragments (VSMC-E1A; VSMC-E1A, 6 hr, serum-supplied medium, 0.25 μM staurosporine, 1 μM okadaic acid) [%]
1 | C[C@@H]1O[C@@H](O[C@H]2C[C@@H](O)[C@]3(CO)[C@H]4[C@H](O)C[C@]5(C)[C@@H](C6=CC(=O)OC6)CC[C@]5(O)[C@@H]4CC[C@]3(O)C2)[C@H](O)[C@H](O)[C@H]1O [Ouabain, 1β,3β,5,11α,14,19-hexahydroxycard 20 [22]-enolide 3-[6-deoxy-α-L-mannopyrano-sidel]] | abolished the increment of caspase-3 activity | did not observe any effect | 101±39 pmol (mg prot)^−1 hr^−1 | blocked | 21 ± 3 | 1.5 ± 0.3 | 5.7 ± 0.6 | blocked baseline as well as serum withdrawal-induced chromatin cleavage | 5.0 | 1.9 | 32.0 | 6.3 | Neither ouabain nor equimolar substitution of Na^+ by K^+ in the incubation medium affected the increment of caspase-3 activity | 497±67 pmol (mg prot)^−1 hr^−1 | – | – | – | – | –
2 | OC[C@@H](O)[C@@H](O)[C@H](O)[C@H](O)CO [mannitol] | – | – | – | – | – | – | – | – | – | – | – | – | – | – | insensitive to mannitol-induced cell shrinkage | insensitive to hyperosmotic shrinkage | ~10 | – | –
3 | CN[C@@H]1C[C@H]2O[C@@](C)([C@@H]1OC)n1c3ccccc3c3c4c(c5c6ccccc6n2c5c31)C(=O)NC4 [staurosporine] | – | – | – | – | – | – | – | – | – | – | – | – | – | – | – | – | ~20 | 8 | 30.1±4.7

From patent publication US6699676B1, “Uses of ouabain and ouabain-like molecules in apoptosis related pathologies” (Corporation du Centre de Recherche du Centre, Hospitalier …, priority 1999, dated 2004)
